Data reported in ChEMBL document CHEMBL4665919, “Novel Tricyclic Pyroglutamide Derivatives as Potent RORγt Inverse Agonists Identified using a Virtual Screening Approach” (ACS Med Chem Lett, 2020).
One block for each compound: values may come before it.

Key:
[1] = molecular target: T1, Nuclear receptor ROR-gamma (Homo sapiens, UniProt P51449); test: Inverse agonist activity at RORgammat in human whole blood assessed as IL-17 production by ELISA; format: tissue-based
T1 sequence (P51449 whole entry): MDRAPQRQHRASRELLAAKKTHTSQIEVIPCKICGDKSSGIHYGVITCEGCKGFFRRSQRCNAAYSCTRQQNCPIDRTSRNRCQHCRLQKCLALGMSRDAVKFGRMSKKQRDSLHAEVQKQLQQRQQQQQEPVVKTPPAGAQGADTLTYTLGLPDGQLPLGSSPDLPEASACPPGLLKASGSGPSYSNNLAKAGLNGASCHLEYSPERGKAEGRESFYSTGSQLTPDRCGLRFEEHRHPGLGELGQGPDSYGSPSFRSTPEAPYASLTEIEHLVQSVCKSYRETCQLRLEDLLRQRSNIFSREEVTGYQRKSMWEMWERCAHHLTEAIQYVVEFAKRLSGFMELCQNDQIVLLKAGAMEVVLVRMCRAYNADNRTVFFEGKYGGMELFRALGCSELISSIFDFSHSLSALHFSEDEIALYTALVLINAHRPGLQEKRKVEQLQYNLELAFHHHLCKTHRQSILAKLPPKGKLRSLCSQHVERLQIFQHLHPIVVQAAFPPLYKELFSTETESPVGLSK

[2] = Half life in rat liver microsomes; format: ADME, Microsome
[3] = Half life in mouse liver microsomes; format: ADME, Microsome
[4] = Half life in human liver microsomes; format: ADME, Microsome
[5] = molecular target: T1, Nuclear receptor ROR-gamma; test: Inverse agonist activity at Gal4-fused RORgammat LBD (unknown origin) by reporter gene assay
[6] = (§1) Cmax in IL-23 induced acanthosis C57BL/6 mouse model of psoriasis measured as (3R,5S)-3-Fluoro-5-((3aR,9bR)-9b-((4-fluorophenyl)sulfonyl)-7-(perfluoropropan-2-yl)-2,3,3a,4,5,9b-hexahydro-1H-benzo[e]indole-3-carbonyl)-1-(2-hydroxy-2-methylpropyl)pyrrolidin-2-one at 15 mg/kg, po qd administered for 9 days 2 hrs before IL-23 injection; format: ADME, organism-based; parameters: route oral, dose 15 mg/kg, time 9 day; details: in vivo, 216 h
Mus musculus [7] = test: as §1, with “Suppression of ear thickness” for “Cmax”, “qd” for “qd administered”, “injection measured every other day relative to IL-23 antibody treatment” for “injection”; format: functional; details: C57BL/6, po, 216 h, time 9 day
[8] = as §1, with “Toxicity” for “Cmax”, “psoriasis assessed as change in body weight” for “psoriasis”, “5 to 45” for “15”, “injection measured every other day” for “injection”; format: organism-based; details: in vivo, 0.15 h, dose 5-45 mg/kg, time 9 min
[9] = as §1, with “AUC” for “Cmax”, “for” for “for 9 days”, “injection measured on day 1” for “injection”; format: ADME, organism-based; parameters: time 1 day, dose 15 mg/kg; details: in vivo, 24 h
[10] = as §1, with “AUC” for “Cmax”, “5” for “15”; format: ADME, organism-based; parameters: dose 5 mg/kg, time 9 day; details: in vivo, 216 h
[11] = (§2) Drug concentration in IL-23 induced acanthosis in C57BL/6 mouse measured as (3R,5S)-3-Fluoro-5-((3aR,9bR)-9b-((4-fluorophenyl)sulfonyl)-7-(perfluoropropan-2-yl)-2,3,3a,4,5,9b-hexahydro-1H-benzo[e]indole-3-carbonyl)-1-(2-hydroxy-2-methylpropyl)pyrrolidin-2-one at 5 mg/kg, po qd administered for 2 hrs before IL-23 injection measured on day 1; format: ADME, organism-based; details: in vivo, 24 h, time 1 day, read-out: Ct
[12] = (§3) Drug concentration in IL-23 induced acanthosis in C57BL/6 mouse measured as (3R,5S)-3-Fluoro-5-((3aR,9bR)-9b-((4-fluorophenyl)sulfonyl)-7-(perfluoropropan-2-yl)-2,3,3a,4,5,9b-hexahydro-1H-benzo[e]indole-3-carbonyl)-1-(2-hydroxy-2-methylpropyl)pyrrolidin-2-one at 45 mg/kg, po qd administered for 9 days 2 hrs before IL-23 injection; format: ADME, organism-based; details: in vivo, 216 h, time 9 day, read-out: Ct
[13] = as §2, with “AUC in” for “Drug concentration in”, “acanthosis” for “acanthosis in”, “mouse model of psoriasis” for “mouse”, “at 45” for “at 5”; format: ADME, organism-based; parameters: time 1 day, dose 45 mg/kg; details: in vivo, 24 h
Mus musculus [14] = test: as §1, with “Suppression of ear thickness” for “Cmax”, “45” for “15”, “injection measured every other day relative to IL-23 antibody treatment” for “injection”; format: functional; details: C57BL/6, po, 216 h, time 9 day
[15] = as §2, with “at 45” for “at 5”, “day 11” for “day 1”; format: ADME, organism-based; details: in vivo, 24 h, time 1 day, read-out: Ct
[16] = Ratio of IC90 for inverse agonist activity at RORgammat in human whole blood assessed as IL-17 production by ELISA to drug concentration in IL-23 induced acanthosis in […] mouse measured as (3R,5S)-3-Fluoro-5-((3aR,9bR)-9b-((4-fluorophenyl)sulfonyl)-7-(perfluoropropan-2-yl)-2,3,3a,4,5,9b-hexahydro-1H-benzo[e]indole-3-carbonyl)-1-(2-hydroxy-2-methylpropyl)pyrrolidin-2-one at 45 mg/kg, po qd …
[17] = Ratio of IC90 for inverse agonist activity at RORgammat in human whole blood assessed as IL-17 production by ELISA to drug concentration in IL-23 induced acanthosis in Th17 mouse measured as (3R,5S)-3-Fluoro-5-((3aR,9bR)-9b-((4-fluorophenyl)sulfonyl)-7-(perfluoropropan-2-yl)-2,3,3a,4,5,9b-hexahydro-1H-benzo[e]indole-3-carbonyl)-1-(2-hydroxy-2-methylpropyl)pyrrolidin-2-one at 15 mg/kg, po qd …
[18] = Solubility of the compound at pH 6.7; format: physicochemical; details: buffer
[19] = as §1, with “AUC” for “Cmax”; format: ADME, organism-based; parameters: time 9 day, dose 15 mg/kg; details: in vivo, 216 h
[20] = as §2, with “AUC” for “Drug concentration”, “acanthosis” for “acanthosis in”, “mouse model of psoriasis” for “mouse”; format: ADME, organism-based; parameters: time 1 day, dose 5 mg/kg; details: in vivo, 24 h
[21] = as §2, with “at 15” for “at 5”; format: ADME, organism-based; details: in vivo, 24 h, time 1 day, read-out: Ct
[22] = as §1, with “5” for “15”; format: ADME, organism-based; parameters: route oral, dose 5 mg/kg, time 9 day; details: in vivo, 216 h
[23] = as §1, with “45” for “15”; format: ADME, organism-based; parameters: route oral, dose 45 mg/kg, time 9 day; details: in vivo, 216 h
[24] = Ratio of IC90 for inverse agonist activity at RORgammat in human whole blood assessed as IL-17 production by ELISA to drug concentration in IL-23 induced acanthosis in Th17 mouse measured as (3R,5S)-3-Fluoro-5-((3aR,9bR)-9b-((4-fluorophenyl)sulfonyl)-7-(perfluoropropan-2-yl)-2,3,3a,4,5,9b-hexahydro-1H-benzo[e]indole-3-carbonyl)-1-(2-hydroxy-2-methylpropyl)pyrrolidin-2-one at 5 mg/kg, po qd administered for 9 days 2 hrs before IL-23 injection
[25] = as §3, with “5” for “45”; format: ADME, organism-based; details: in vivo, 216 h, time 9 day, read-out: Ct
[26] = as §3, with “15” for “45”; format: ADME, organism-based; details: in vivo, 216 h, time 9 day, read-out: Ct
[27] = as §1, with “AUC” for “Cmax”, “45” for “15”; format: ADME, organism-based; parameters: time 9 day, dose 45 mg/kg; details: in vivo, 216 h

Compound: O=C1[C@H](F)C[C@@H](C(=O)N2CC[C@@]3(S(=O)(=O)c4ccc(F)cc4)c4ccc(C(F)(C(F)(F)F)C(F)(F)F)cc4CC[C@@H]23)N1Cc1ccc(F)cc1
- EC50 [1]: 57 nM
- half-life [2]: 35 min
- half-life [3]: 29 min
- half-life [4]: 24 min
- EC50 [5]: 7 nM

Compound: CC(C)(CN1C(=O)[C@H](F)C[C@H]1C(=O)N1CC[C@@]2(S(=O)(=O)c3ccc(F)cc3)c3ccc(C(F)(C(F)(F)F)C(F)(F)F)cc3CC[C@@H]12)OP(=O)(O)O
- Cmax [6]: 2580 nM
- inhibition in vivo at 15 mg/kg (Mus musculus [7]): 38%
- Activity [8]: Non-Toxic
- AUC [9]: 30.9 µM·h
- AUC [10]: 9 µM·h
- concentration [11]: 210 nM
- concentration [12]: 5820 nM
- AUC [13]: 274.3 µM·h
- inhibition in vivo at 45 mg/kg (Mus musculus [14]): 67%
- concentration [15]: 910 nM
- Ratio [16]: 13.9
- Ratio [17]: 3.2
- solubility [18]: ≥ 4700 µg/mL
- AUC [19]: 45.2 µM·h
- AUC [20]: 13.9 µM·h
- concentration [21]: 480 nM
- Cmax [22]: 650 nM
- Cmax [23]: 8340 nM
- Ratio [24]: 0.4
- concentration [25]: 150 nM
- concentration [26]: 1360 nM
- AUC [27]: 162.9 µM·h

Compound: N#CCCN1C(=O)[C@H](F)C[C@H]1C(=O)N1CC[C@@]2(S(=O)(=O)c3ccc(F)cc3)c3ccc(C(F)(C(F)(F)F)C(F)(F)F)cc3CC[C@@H]12
- EC50 [1]: 30 nM
- half-life [2]: 45 min
- half-life [3]: 79 min
- half-life [4]: > 120 min
- EC50 [5]: 18 nM

Compound: CN1C(=O)CC[C@H]1C(=O)N1CC[C@@]2(S(=O)(=O)c3ccc(F)cc3)c3ccc(C(F)(C(F)(F)F)C(F)(F)F)cc3CC[C@@H]12
- half-life [2]: > 120 min
- half-life [3]: 116 min
- half-life [4]: 87 min

Compound: N#Cc1ccc(CN2C(=O)[C@H](F)C[C@H]2C(=O)N2CC[C@@]3(S(=O)(=O)c4ccc(F)cc4)c4ccc(C(F)(C(F)(F)F)C(F)(F)F)cc4CC[C@@H]23)cc1
- half-life [2]: 61 min
- half-life [3]: 74 min
- half-life [4]: 58 min
- EC50 [5]: 30 nM

Compound: O=C(O)CN1C(=O)[C@H](F)C[C@H]1C(=O)N1CC[C@@]2(S(=O)(=O)c3ccc(F)cc3)c3ccc(C(F)(C(F)(F)F)C(F)(F)F)cc3CC[C@@H]12
- EC50 [5]: 1500 nM

Compound: CO[C@H]1C[C@@H](C(=O)N2CC[C@@]3(S(=O)(=O)c4ccc(F)cc4)c4ccc(C(F)(C(F)(F)F)C(F)(F)F)cc4CC[C@@H]23)N(C)C1=O
- half-life [2]: 43 min
- half-life [3]: 94 min
- half-life [4]: > 120 min

More lines, now with the values ahead:

- half-life [2]: 55 min
- half-life [3]: 75 min
- half-life [4]: > 120 min
Compound: CN1C(=O)[C@H](F)C[C@H]1C(=O)N1CC[C@@]2(S(=O)(=O)c3ccc(F)cc3)c3ccc(C(F)(C(F)(F)F)C(F)(F)F)cc3CC[C@@H]12

- half-life [2]: 10 min
- half-life [3]: 25 min
- half-life [4]: 27 min
Compound: CN1C(=O)[C@@H](O)C[C@H]1C(=O)N1CC[C@@]2(S(=O)(=O)c3ccc(F)cc3)c3ccc(C(F)(C(F)(F)F)C(F)(F)F)cc3CC[C@@H]12

- half-life [2]: > 120 min
- half-life [3]: > 120 min
- half-life [4]: > 120 min
Compound: [2H]C([2H])([2H])N1C(=O)[C@H](F)C[C@H]1C(=O)N1CC[C@@]2(S(=O)(=O)c3ccc(F)cc3)c3ccc(C(F)(C(F)(F)F)C(F)(F)F)cc3CC[C@@H]12

- half-life [2]: 48 min
- half-life [3]: 85 min
- half-life [4]: > 120 min
Compound: [2H]C([2H])([2H])N1C(=O)[C@@H](F)C[C@H]1C(=O)N1CC[C@@]2(S(=O)(=O)c3ccc(F)cc3)c3ccc(C(F)(C(F)(F)F)C(F)(F)F)cc3CC[C@@H]12

- half-life [2]: 45 min
- half-life [3]: 52 min
- half-life [4]: 50 min
Compound: CC(C)N1C(=O)[C@H](F)C[C@H]1C(=O)N1CC[C@@]2(S(=O)(=O)c3ccc(F)cc3)c3ccc(C(F)(C(F)(F)F)C(F)(F)F)cc3CC[C@@H]12

- half-life [2]: 58 min
- half-life [3]: 88 min
- half-life [4]: 57 min
Compound: [2H]C([2H])([2H])N1C(=O)C(F)(F)C[C@H]1C(=O)N1CC[C@@]2(S(=O)(=O)c3ccc(F)cc3)c3ccc(C(F)(C(F)(F)F)C(F)(F)F)cc3CC[C@@H]12

- half-life [2]: 36 min
- half-life [3]: 60 min
- half-life [4]: > 120 min
Compound: O=C1[C@H](F)C[C@@H](C(=O)N2CC[C@@]3(S(=O)(=O)c4ccc(F)cc4)c4ccc(C(F)(C(F)(F)F)C(F)(F)F)cc4CC[C@@H]23)N1CCO
